Results taken from ChEMBL document CHEMBL3046561, “Feeding deterrents from Dictamnus dasycarpus Turcz against two stored-product insects” (J Agric Food Chem, 2002).

How the values were obtained:
Tribolium castaneum [1] = assay: Antifeedant activity against adult of Tribolium castaneum (red flour beetle) assessed as mortality at 300 ppm after 3 days relative to control; type: functional; details: 72 h
Tribolium castaneum [2] = assay: Antifeedant activity against larvae of Tribolium castaneum (red flour beetle) assessed as efficiency of conversion of ingested food at 300 ppm after 3 days relative to control; details: Instar larval stage, 72 h
Tribolium castaneum [3] = assay: Antifeedant activity against adult of Tribolium castaneum (red flour beetle) assessed as efficiency of conversion of ingested food at 300 ppm after 3 days relative to control; type: functional, Instar larval stage
Tribolium castaneum [4] = assay: Antifeedant activity against larvae of Tribolium castaneum (red flour beetle) assessed as feeding deterrence index at 100 ppm after 3 days relative to control; type: functional
Tribolium castaneum [5] = assay: Antifeedant activity against larvae of Tribolium castaneum (red flour beetle) assessed as feeding deterrence index at 10 ppm after 3 days relative to control; type: functional
Tribolium castaneum [6] = assay: Antifeedant activity against adult of Tribolium castaneum (red flour beetle) assessed as feeding deterrence index at 100 ppm after 3 days relative to control; type: functional
Sitophilus zeamais [7] = assay: Antifeedant activity against adult of Sitophilus zeamais assessed as feeding deterrence index at 300 ppm after 3 days relative to control; type: functional
Sitophilus zeamais [8] = assay: Antifeedant activity against adult of Sitophilus zeamais assessed as feeding deterrence index at 30 ppm after 3 days relative to control; type: functional
Sitophilus zeamais [9] = assay: Antifeedant activity against adult of Sitophilus zeamais assessed as feeding deterrence index at 3 ppm after 3 days relative to control; type: functional
Tribolium castaneum [10] = assay: Antifeedant activity against larvae of Tribolium castaneum (red flour beetle) assessed as mortality at 100 ppm after 3 days relative to control; type: functional; details: 72 h
Sitophilus zeamais [11] = assay: Antifeedant activity against adult of Sitophilus zeamais assessed as relative growth rate at 10 ppm after 3 days relative to control; type: functional
Sitophilus zeamais [12] = assay: Antifeedant activity against adult of Sitophilus zeamais assessed as relative growth rate at 300 ppm after 3 days relative to control; type: functional
Tribolium castaneum [13] = assay: Antifeedant activity against adult of Tribolium castaneum (red flour beetle) assessed as relative growth rate at 3 ppm after 3 days relative to control; type: functional
Sitophilus zeamais [14] = assay: Antifeedant activity against adult of Sitophilus zeamais assessed as efficiency of conversion of ingested food at 100 ppm after 3 days relative to control; type: functional
Sitophilus zeamais [15] = assay: Antifeedant activity against adult of Sitophilus zeamais assessed as efficiency of conversion of ingested food at 30 ppm after 3 days relative to control; type: functional
Sitophilus zeamais [16] = assay: Antifeedant activity against adult of Sitophilus zeamais assessed as efficiency of conversion of ingested food at 3 ppm after 3 days relative to control; type: functional
Tribolium castaneum [17] = assay: Antifeedant activity against larvae of Tribolium castaneum (red flour beetle) assessed as relative consumption rate at 300 ppm after 3 days relative to control; type: functional
Tribolium castaneum [18] = assay: Antifeedant activity against larvae of Tribolium castaneum (red flour beetle) assessed as relative consumption rate at 30 ppm after 3 days relative to control; type: functional
Tribolium castaneum [19] = assay: Antifeedant activity against adult of Tribolium castaneum (red flour beetle) assessed as relative consumption rate at 100 ppm after 3 days relative to control; type: functional
Tribolium castaneum [20] = assay: Antifeedant activity against adult of Tribolium castaneum (red flour beetle) assessed as relative consumption rate at 3 ppm after 3 days relative to control; type: functional
Tribolium castaneum [21] = assay: Antifeedant activity against adult of Tribolium castaneum (red flour beetle) assessed as relative consumption rate at 10 ppm after 3 days relative to control; type: functional
Sitophilus zeamais [22] = assay: Antifeedant activity against adult of Sitophilus zeamais assessed as relative consumption rate at 300 ppm after 3 days relative to control; type: functional
Sitophilus zeamais [23] = assay: Antifeedant activity against adult of Sitophilus zeamais assessed as relative consumption rate at 10 ppm after 3 days relative to control; type: functional
Tribolium castaneum [24] = assay: Antifeedant activity against larvae of Tribolium castaneum (red flour beetle) assessed as relative growth rate at 300 ppm after 3 days relative to control; type: functional
Tribolium castaneum [25] = assay: Antifeedant activity against larvae of Tribolium castaneum (red flour beetle) assessed as relative growth rate at 30 ppm after 3 days relative to control; type: functional
Tribolium castaneum [26] = assay: Antifeedant activity against larvae of Tribolium castaneum (red flour beetle) assessed as relative growth rate at 3 ppm after 3 days relative to control; type: functional
Tribolium castaneum [27] = assay: Antifeedant activity against adult of Tribolium castaneum (red flour beetle) after 3 days; type: functional, organism-based
Tribolium castaneum [28] = assay: Antifeedant activity against larvae of Tribolium castaneum (red flour beetle) after 3 days; type: functional, organism-based
Sitophilus zeamais [29] = assay: Antifeedant activity against adult of Sitophilus zeamais after 3 days; type: functional, organism-based
Tribolium castaneum [30] = assay: Antifeedant activity against adult of Tribolium castaneum (red flour beetle) assessed as relative growth rate at 30 ppm after 3 days relative to control; type: functional
Tribolium castaneum [31] = assay: Antifeedant activity against larvae of Tribolium castaneum (red flour beetle) assessed as relative growth rate at 100 ppm after 3 days relative to control; type: functional

Structure (SMILES)	mortality at 300 ppm (Tribolium castaneum [1]) [%]	Activity (Tribolium castaneum [3]) [%]	FDI (Tribolium castaneum [4]) [%]	FDI (Tribolium castaneum [5]) [%]	FDI (Tribolium castaneum [6]) [%]	FDI (Sitophilus zeamais [7]) [%]	FDI (Sitophilus zeamais [8]) [%]	FDI (Sitophilus zeamais [9]) [%]	mortality at 100 ppm (Tribolium castaneum [10]) [%]	Activity (Sitophilus zeamais [11]) [µg/mg/day]	Activity (Sitophilus zeamais [12]) [µg/mg/day]	Activity (Tribolium castaneum [13]) [µg/mg/day]	Activity (Sitophilus zeamais [14]) [%]	Activity (Sitophilus zeamais [15]) [%]	Activity (Sitophilus zeamais [16]) [%]	Activity (Tribolium castaneum [17]) [µg/mg/day]	Activity (Tribolium castaneum [18]) [µg/mg/day]	Activity (Tribolium castaneum [19]) [µg/mg/day]	Activity (Tribolium castaneum [20]) [µg/mg/day]	Activity (Tribolium castaneum [21]) [µg/mg/day]	further results
COc1c2ccccc2nc2occc12 [DICTAMNINE]	2	13.81	64.42	21.77	59.58	68.04	30.99	9.69	0	14.32	3.21	29.56	9.73	9.78	9.1	84.83	168.23	59.8	132.89	129.71	mortality at 300 ppm (Tribolium castaneum [2]): 13.2%; Activity (Sitophilus zeamais [22]): 35.13 µg/mg/day; Activity (Sitophilus zeamais [23]): 110.95 µg/mg/day; Activity (Tribolium castaneum [24]): 7.08 µg/mg/day; Activity (Tribolium castaneum [25]): 31.75 µg/mg/day; Activity (Tribolium castaneum [26]): 52.88 µg/mg/day
CC1=C2C(=O)O[C@@H](c3ccoc3)[C@]2(C)CCC1 [FRAXINELLONE]	4	10.07	72.76	24.45	69.28	77.77	30.76	2.92	0	13.29	4.26	30.45	9.66	9.57	11.41	30.12	163.61	60.43	140.68	120.94	EC50 (Tribolium castaneum [27]): 36.4 ppm; EC50 (Tribolium castaneum [28]): 29.1 ppm; EC50 (Sitophilus zeamais [29]): 71.2 ppm; Activity (Tribolium castaneum [30]): 19.84 µg/mg/day; Activity (Sitophilus zeamais [22]): 35.29 µg/mg/day; Activity (Sitophilus zeamais [23]): 120.27 µg/mg/day; Activity (Tribolium castaneum [31]): 11.71 µg/mg/day; Activity (Tribolium castaneum [24]): -8.44 µg/mg/day; Activity (Tribolium castaneum [25]): 23.22 µg/mg/day; Activity (Tribolium castaneum [26]): 52.62 µg/mg/day
